According to ChEMBL document CHEMBL5252638, “Novel triphenylphosphonium amphiphilic conjugates of glycerolipid type: synthesis, cytotoxic and antibacterial activity, and targeted cancer cell delivery” (RSC Med Chem, 2023):

Experiments:
M-HeLa = experiment: Cytotoxicity against human HelaM cells assessed as number of viable cells measured after 48 hrs by MTT based colorimetric assay; format: functional, cell-based
MCF7 = experiment: Cytotoxicity against human MCF7 cells assessed as number of viable cells measured after 48 hrs by MTT based colorimetric assay; format: functional, cell-based; conditions: MCF7, 48 h
HuTu80 [1] = experiment: Cytotoxicity against human HuTu80 cells assessed as number of viable cells measured after 48 hrs by MTT based colorimetric assay; format: functional, cell-based; conditions: HuTu80, 48 h
PANC-1 = experiment: Cytotoxicity against human PANC-1 cells assessed as number of viable cells measured after 48 hrs by MTT based colorimetric assay; format: functional, cell-based; conditions: PANC-1, 48 h
A549 = experiment: Cytotoxicity against human A549 cells assessed as number of viable cells measured after 48 hrs by MTT based colorimetric assay; format: functional, cell-based; conditions: A549, 48 h
PC-3 = experiment: Cytotoxicity against human PC-3 cells assessed as number of viable cells measured after 48 hrs by MTT based colorimetric assay; format: functional, cell-based; conditions: PC-3, 48 h
T98G = experiment: Cytotoxicity against human T98G cells assessed as number of viable cells measured after 48 hrs by MTT based colorimetric assay; format: functional, cell-based
HepG2 = experiment: Cytotoxicity against human HepG2 cells assessed as number of viable cells measured after 48 hrs by MTT based colorimetric assay; format: functional, cell-based; conditions: HepG2, 48 h
SK-OV-3 = experiment: Cytotoxicity against human SK-OV-3 cells assessed as number of viable cells measured after 48 hrs by MTT based colorimetric assay; format: functional, cell-based; conditions: SK-OV-3, 48 h
DU-145 = experiment: Cytotoxicity against human DU-145 cells assessed as number of viable cells measured after 48 hrs by MTT based colorimetric assay; format: functional, cell-based; conditions: DU-145, 48 h
[2] = Cytotoxicity against human WI-38 cells assessed as number of viable cells measured after 48 hrs by MTT based colorimetric assay; format: toxicity, cell-based
[3] = Cytotoxicity against human Chang liver cells assessed as number of viable cells measured after 48 hrs by MTT based colorimetric assay; format: toxicity, cell-based
[4] = Selectivity index, ratio of IC50 for human WI-38 cells to IC50 for human MCF7 cells; format: toxicity; conditions: WI-38 cells and MCF7 cells, read-out: Ratio IC50
Homo sapiens [5] = species: Homo sapiens; experiment: Selectivity index, ratio of IC50 for human WI-38 cells to IC50 for human HuTu80 cells
[6] = Selectivity index, ratio of IC50 for human WI-38 cells to IC50 for human PC-3 cells; format: toxicity; conditions: WI-38 cells and PC-3 cells, read-out: Ratio IC50
[7] = Selectivity index, ratio of IC50 for human WI-38 cells to IC50 for human T98G cells; format: toxicity; conditions: WI-38 cells and T98G cells, read-out: Ratio IC50
Homo sapiens [8] = species: Homo sapiens; experiment: Selectivity index, ratio of IC50 for human WI-38 cells to IC50 for human DU-145 cells
HuTu80 [9] = experiment: Induction of apoptosis in human HuTu80 cells assessed as viable cells at 1 uM incubated for 48 hrs by annexin V FITC/propidium iodide staining based flow cytometry analysis (reference value: 93.71%); format: functional; conditions: read-out: Activity
HuTu80 [10] = experiment: Induction of apoptosis in human HuTu80 cells assessed as viable cells at 2 uM incubated for 48 hrs by annexin V FITC/propidium iodide staining based flow cytometry analysis (reference value: 93.71%); format: functional; conditions: read-out: Activity
HuTu80 [11] = experiment: Induction of apoptosis in human HuTu80 cells assessed as early apoptotic cells at 1 uM incubated for 48 hrs by annexin V FITC/propidium iodide staining based flow cytometry analysis (reference value: 1.74%); format: functional
HuTu80 [12] = experiment: Induction of apoptosis in human HuTu80 cells assessed as early apoptotic cells at 2 uM incubated for 48 hrs by annexin V FITC/propidium iodide staining based flow cytometry analysis (reference value: 1.74%); format: functional
HuTu80 [13] = experiment: Induction of apoptosis in human HuTu80 cells assessed as late apoptotic cells at 1 uM incubated for 48 hrs by annexin V FITC/propidium iodide staining based flow cytometry analysis (reference value: 0.00%); format: functional
HuTu80 [14] = experiment: Induction of apoptosis in human HuTu80 cells assessed as late apoptotic cells at 2 uM incubated for 48 hrs by annexin V FITC/propidium iodide staining based flow cytometry analysis (reference value: 0.00%); format: functional
HuTu80 [15] = experiment: Induction of apoptosis in human HuTu80 cells assessed as necrotic cells at 1 uM incubated for 48 hrs by annexin V FITC/propidium iodide staining based flow cytometry analysis (reference value: 4.56%); format: functional
HuTu80 [16] = experiment: Induction of apoptosis in human HuTu80 cells assessed as necrotic cells at 2 uM incubated for 48 hrs by annexin V FITC/propidium iodide staining based flow cytometry analysis (reference value: 4.56%); format: functional
HuTu80 [17] = experiment: Induction of cell cycle arrest in human HuTu80 cells assessed as accumulation of cell at G1/G0 phase at 1 uM measured after 48 hrs by propidium iodide staining based analysis (reference value: 72%); format: functional
HuTu80 [18] = experiment: Induction of cell cycle arrest in human HuTu80 cells assessed as accumulation of cell at G1/G0 phase at 2 uM measured after 48 hrs by propidium iodide staining based analysis (reference value: 72%); format: functional
HuTu80 [19] = experiment: Induction of cell cycle arrest in human HuTu80 cells assessed as accumulation of cell at G2/M phase at 1 uM measured after 48 hrs by propidium iodide staining based analysis (reference value: 18.7%); format: functional
HuTu80 [20] = experiment: Induction of cell cycle arrest in human HuTu80 cells assessed as accumulation of cell at G2/M phase at 2 uM measured after 48 hrs by propidium iodide staining based analysis (reference value: 18.7%); format: functional
HuTu80 [21] = experiment: Induction of cell cycle arrest in human HuTu80 cells assessed as accumulation of cell at S phase at 1 uM measured after 48 hrs by propidium iodide staining based analysis (reference value: 8.1%); format: functional
HuTu80 [22] = experiment: Induction of cell cycle arrest in human HuTu80 cells assessed as accumulation of cell at S phase at 2 uM measured after 48 hrs by propidium iodide staining based analysis (reference value: 8.1%); format: functional
HuTu80 [23] = experiment: Induction of ROS production in human HuTu80 cells assessed as increase in fluorescence intensity at 5 uM measured after 48 hrs by flow cytometry based analysis (reference value: 380); format: functional
HuTu80 [24] = experiment: Induction of ROS production in human HuTu80 cells assessed as increase in fluorescence intensity at 10 uM measured after 48 hrs by flow cytometry based analysis (reference value: 380); format: functional
HuTu80 [25] = experiment: Induction of mitochondrial membrane potential loss in human HuTu80 cells assessed as J-monomer green fluorescence intensity at 5 uM incubated for 24 hrs by JC10 staining based flow cytometry method (reference value: 5.7%); format: functional
HuTu80 [26] = experiment: Induction of mitochondrial membrane potential loss in human HuTu80 cells assessed as J-monomer green fluorescence intensity at 10 uM incubated for 24 hrs by JC10 staining based flow cytometry method (reference value: 5.7%); format: functional
HuTu80 [27] = experiment: Induction of mitochondrial membrane potential loss in human HuTu80 cells assessed as J-aggregates red fluorescence intensity at 5 uM incubated for 24 hrs by JC10 staining based flow cytometry method (reference value: 94.4%); format: functional
HuTu80 [28] = experiment: Induction of mitochondrial membrane potential loss in human HuTu80 cells assessed as J-aggregates red fluorescence intensity at 10 uM incubated for 24 hrs by JC10 staining based flow cytometry method (reference value: 94.4%); format: functional
Staphylococcus aureus [29] = experiment: Antimicrobial activity against Staphylococcus aureus ATCC 6538 P FDA 209P by serial microdilution method; format: functional
Bacillus cereus [30] = experiment: Antimicrobial activity against Bacillus cereus ATCC 10702 NCTC 8035 by serial microdilution method; format: functional
Enterococcus faecalis [31] = experiment: Antimicrobial activity against Enterococcus faecalis ATCC 29212 by serial microdilution method; format: functional
Staphylococcus aureus [32] = experiment: Bactericidal against Staphylococcus aureus ATCC 6538 P FDA 209P by serial microdilution method; format: functional
Bacillus cereus [33] = experiment: Bactericidal activity against Bacillus cereus ATCC 10702 NCTC 8035 by serial microdilution method; format: functional
Homo sapiens [34] = species: Homo sapiens; experiment: Selectivity index, ratio of IC50 for human WI-38 cells to IC50 for human SK-OV-3 cells
Pseudomonas aeruginosa [35] = experiment: Antimicrobial activity against Pseudomonas aeruginosa ATCC 9027 by serial microdilution method; format: functional
Homo sapiens [36] = species: Homo sapiens; experiment: Selectivity index, ratio of IC50 for human WI-38 cells to IC50 for human PANC-1 cells
[37] = Selectivity index, ratio of IC50 for human WI-38 cells to IC50 for human HepG2 cells; format: toxicity; conditions: WI-38 cells and HepG2 cells, read-out: Ratio IC50
Escherichia coli [38] = experiment: Antimicrobial activity against Escherichia coli ATCC 25922 by serial microdilution method; format: functional
Enterococcus faecalis [39] = experiment: Bactericidal activity against Enterococcus faecalis ATCC 29212 by serial microdilution method; format: functional
Escherichia coli [40] = experiment: Bactericidal activity against Escherichia coli ATCC 25922 by serial microdilution method; format: functional
Pseudomonas aeruginosa [41] = experiment: Bactericidal against Pseudomonas aeruginosa ATCC 9027 by serial microdilution method; format: functional
[42] = Selectivity index, ratio of IC50 for human WI-38 cells to IC50 for human A549 cells; format: toxicity; conditions: WI-38 cells and A549 cells, read-out: Ratio IC50

## C=C(C)[C@@H]1CC[C@]2(COC(=O)CCC(=O)OC(COC(=O)CCCCCCC/C=C\CCCCCCCC)COC(=O)CCCC[P+](c3ccccc3)(c3ccccc3)c3ccccc3)CC[C@]3(C)[C@H](CC[C@@H]4[C@@]5(C)CC[C@H](O)C(C)(C)[C@@H]5CC[C@]43C)[C@@H]12.[Br-] (stereo partly specified)
M-HeLa
  IC50: 51 µM
MCF7
  IC50: 16.4 µM
HuTu80 [1]
  IC50: 1.7 µM
PANC-1
  IC50: 35.7 µM
A549
  IC50: 54.2 µM
PC-3
  IC50: 32.3 µM
T98G
  IC50: 22 µM
HepG2
  IC50: 60 µM
SK-OV-3
  IC50: 57 µM
DU-145
  IC50: 15.5 µM
[2]
  IC50 at 48 h: 36.3 µM
[3]
  IC50 at 48 h: 11.2 µM
[4]
  selectivity ratio: 2.2
Homo sapiens [5]
  Ratio IC50: 21.4
[6]
  selectivity ratio: 1.1
[7]
  selectivity ratio: 1.7
Homo sapiens [8]
  Ratio IC50: 2.3
HuTu80 [9]
  viability at 1 µM: 76.1%
HuTu80 [10]
  viability at 2 µM: 51%
HuTu80 [11]
  Activity: 1.29%
HuTu80 [12]
  Activity: 2.5%
HuTu80 [13]
  Activity: 4.58%
HuTu80 [14]
  Activity: 12%
HuTu80 [15]
  Activity: 18.03%
HuTu80 [16]
  Activity: 34.5%
HuTu80 [17]
  Activity: 84%
HuTu80 [18]
  Activity: 87%
HuTu80 [19]
  Activity: 2.8%
HuTu80 [20]
  Activity: 1.8%
HuTu80 [21]
  Activity: 2.8%
HuTu80 [22]
  Activity: 1.9%
HuTu80 [23]
  Flu intensity: 500
HuTu80 [24]
  Flu intensity: 840
HuTu80 [25]
  Activity: 15.9%
HuTu80 [26]
  Activity: 9.7%
HuTu80 [27]
  Activity: 84.2%
HuTu80 [28]
  Activity: 90.3%
Staphylococcus aureus [29]
  MIC: 31.3 µM
Bacillus cereus [30]
  MIC: 15.6 µM
Enterococcus faecalis [31]
  MIC: 125 µM
Staphylococcus aureus [32]
  MBC: 125 µM
Bacillus cereus [33]
  MBC: 125 µM

## CC(C)C1=CC2=CC[C@@H]3[C@](C)(CCC[C@@]3(C)C(=O)OCC(O)COC(=O)CCCC[P+](c3ccccc3)(c3ccccc3)c3ccccc3)[C@H]2CC1 (stereo partly specified)
Homo sapiens [34]
  Ratio IC50: 1.7
Pseudomonas aeruginosa [35]
  MIC: 250 µM
M-HeLa
  IC50: 27.3 µM
MCF7
  IC50: 12.5 µM
HuTu80 [1]
  IC50: 2.2 µM
PANC-1
  IC50: 13.1 µM
A549
  IC50: 26.2 µM
PC-3
  IC50: 11 µM
T98G
  IC50: 9.8 µM
HepG2
  IC50: 21.6 µM
SK-OV-3
  IC50: 14.4 µM
DU-145
  IC50: 2.8 µM
[2]
  IC50 at 48 h: 24.2 µM
[3]
  IC50 at 48 h: 6 µM
[4]
  selectivity ratio: 1.9
Homo sapiens [5]
  Ratio IC50: 11
Homo sapiens [36]
  Ratio IC50: 1.8
[6]
  selectivity ratio: 2.2
[37]
  selectivity ratio: 1.1
Homo sapiens [8]
  Ratio IC50: 8.6
Staphylococcus aureus [29]
  MIC: 31.3 µM
Bacillus cereus [30]
  MIC: 3.9 µM
Enterococcus faecalis [31]
  MIC: 7.8 µM
Escherichia coli [38]
  MIC: 250 µM
Staphylococcus aureus [32]
  MBC: 250 µM
Enterococcus faecalis [39]
  MBC: 250 µM
Escherichia coli [40]
  MBC: 500 µM
Pseudomonas aeruginosa [41]
  MBC: 500 µM

## C=C(C)[C@@H]1CC[C@]2(COCC(O)COC(=O)CCCC[P+](c3ccccc3)(c3ccccc3)c3ccccc3)CC[C@]3(C)[C@H](CC[C@@H]4[C@@]5(C)CC[C@H](O)C(C)(C)[C@@H]5CC[C@]43C)[C@@H]12 (stereo partly specified)
M-HeLa
  IC50: 11.5 µM
MCF7
  IC50: 1.5 µM
HuTu80 [1]
  IC50: 0.3 µM
A549
  IC50: 3.1 µM
PC-3
  IC50: 7.9 µM
T98G
  IC50: 4.1 µM
[2]
  IC50 at 48 h: 4.7 µM
[4]
  selectivity ratio: 3.1
Homo sapiens [5]
  Ratio IC50: 15.7
[42]
  selectivity ratio: 1.5
[7]
  selectivity ratio: 1.1
